Consider one molecule from publication PMC4627284, “High-throughput simultaneous screen and counterscreen identifies homoharringtonine as synthetic lethal with von Hippel-Lindau loss in renal cell carcinoma” (Oncotarget, 2015).

Data set [1] in a line: Toxicity in tumorgraft-bearing mice (mouse weight, signs). In kind it is in vivo. The settings on record: 0.7 mg/kg by gavage twice daily, XP26 and XP144 cohorts. From the text:
C. and D. Average weight of XP26 and XP144 cohort mice in grams (g) taken at the indicated days prior to and over the course of the indicated drug treatment. Day 0 represents the first day of treatment.
(§1) Tumorgrafts were generated and propagated as described previously, with tumor samples implanted subcutaneously into the flank of the mouse for drug trials. Briefly, 4- to 8-week-old NOD/SCID mice were anesthetized with isoflurane and implanted subcutaneously with 64 mm^3 tumor fragments (cohorts 2-20). Once tumors reached an average of at least ~250 mm^3, drug treatment was begun. The mice were treated with vehicle, 0.7 mg/kg homoharringtonine (HHT) via gavage twice daily, or 0.5 mg/kg rapamycin given by IP injection once every 48 hours. Tumor size (volume) was measured twice weekly and was obtained by multiplying tumor length, width, and depth using calipers. To assess toxicity, mouse weight was monitored once weekly.

On the set-up of data set [2]: method as in PMID 3598625. As to conditions: cited from earlier work.
The next data set concerns XP26 tumorgraft line. Briefly: ccRCC tumorgraft model, line XP26. In kind it is in vivo, NOD/SCID mice. The settings on record: 0.7 mg/kg by gavage twice daily. Here is the method:
(§2) We selected 6 independently-derived ccRCC tumorgraft lines that were confirmed to have VHL mutation. The mice (3-5 mice per tumorgraft line) were treated with either HHT (0.7 mg/kg), vehicle (as a negative control), or rapamycin (0.5 mg/kg; as a positive control). In total, 65 tumorgraft bearing mice were evaluated for these experiments in time courses lasting ~28 days, with tumor growth measured every 3 or 4 days.
(§3) Figure 3 HHT inhibits tumor growth in a ccRCC tumorgraft model A-F, Tumorgraft lines were treated with vehicle control, HHT (0.7 mg/kg), rapamycin (0.5 mg/kg), (or the combination, where indicated) and tumor growth was measured on the indicated days. Day 0 represents the first day of treatment.
(§4) Tumorgrafts were generated and propagated as described previously, with tumor samples implanted subcutaneously into the flank of the mouse for drug trials. Briefly, 4- to 8-week-old NOD/SCID mice were anesthetized with isoflurane and implanted subcutaneously with 64 mm^3 tumor fragments (cohorts 2-20). Once tumors reached an average of at least ~250 mm^3, drug treatment was begun. […] Tumor size (volume) was measured twice weekly and was obtained by multiplying tumor length, width, and depth using calipers. To assess toxicity, mouse weight was monitored once weekly.

In data set [3] the test system is VHL-deficient 786-O cells. Briefly: Cell death by trypan blue exclusion assay. The class given is cell-based, human. The settings on record: 36 hours. Here is the method: (§5) Figure 2 Homoharringtonine (HHT) preferentially induces cell death in VHL-deficient 786-O cells A. 786-O cells with VHL mutation (green) or with VHL-reconstituted (red) were treated with different concentrations of HHT (0, 25, 50, or 100 nM) for 0, 6, 12, 24, 36, or 48 hours, and cell death was measured by trypan blue exclusion assay (n = 3 for each concentration and time point; *p < 0.05, **p < 0.001, ***p < 0.0001 between 786-O EV cells and 786-O with VHL reconstituted at the same concentration and time point). B. Western blot analysis of 786-O EV^GFP (EV) or VHL^mCh (VHL) cells treated with 100 nM HHT for 0, 3, 6, 12, or 24 hours. Blots were probed for Bcl-xL and Caspase 9, and α-Tubulin as loading control. Arrow indicates the cleaved Caspase 9 product.

The test system of data set [4] is VHL-reconstituted 786-O cells. Nature of the data set: Cell death by trypan blue exclusion assay. The class given is cell-based, human. The settings on record: 36 hours. Here is the method: as §5
The conditions of data set [5]: cited from earlier work.
The test system of another data set is XP144 tumorgraft line. Nature of the data set: ccRCC tumorgraft model, line XP144. In kind it is in vivo, NOD/SCID mice. As to conditions: 0.7 mg/kg by gavage twice daily. Here is the method:
as §2, §3, §4

The test system of data set [6] is VHL-mutant patient-derived ccRCC tumorgraft lines. Briefly: ccRCC tumorgraft model, six VHL-mutant tumorgraft lines. In kind it is in vivo, NOD/SCID mice. How it is done:
as §2, §3, §1
Sections from tumors were stained with hematoxylin and eosin (H&E) as described previously.

A further data set concerns advanced ccRCC. Set-up: method as in PMID 9157078. As to conditions: 14 patients with advanced ccRCC, 1996; cited from earlier work.

As to `COC(=O)C[C@](O)(CCCC(C)(C)O)C(=O)O[C@@H]1C(OC)=C[C@]23CCCN2CCc2cc4c(cc2[C@H]13)OCO4` [HHT, homoharringtonine], the “body weight of treated mice” value in [1] is listed as “maintained similar body weight compared to controls”. The blood-brain barrier penetration result in data set [2] is “penetrates the blood-brain barrier”. The “tumor weight smaller than vehicle-treated” value in the data set on XP26 tumorgraft line was 56%; in the data set with XP144 tumorgraft line it was 32%. Also, the “tumor growth inhibition (tumor volume) vs vehicle” value in the data set with XP26 tumorgraft line (~28 days) is recorded as 63.7%; in the data set on XP144 tumorgraft line (~28 days) it was 43.0%. Moreover, in data set [3] (50 nM), the VHL-deficient cells killed is 30-40%. In addition, in data set [3] (100 nM), the “dead VHL-deficient cells” value was 50-60%. In [4] (50 nM), this molecule came in with a VHL-reconstituted cells dead of less than 10%. For the same molecule, the “dead VHL-reconstituted cells” value in [4] (100 nM) is “less than 25%”. Moreover, the half-life in humans in [5] (dosed subcutaneously) is reported as 7 h. Besides, the “plasma concentration reached in patients” value in [5] (treatment of CML) is listed as ~ 50 nM. For the same molecule, the “tumorgraft lines with tumor growth inhibited” value in data set [6] (0.7 mg/kg by gavage twice daily, lines responding / lines tested) is on record as 2/6. In data set [6] (HHT 0.7 mg/kg plus rapamycin 0.5 mg/kg), the “synergistic effects with rapamycin in the tumorgrafts” value is reported as “did not observe synergistic effects”. In addition, the “histology of harvested tumors (H&E)” value in data set [6] (XP26 and XP144 cohorts) is on record as “induced tumor cell necrosis”. The “outcome of phase II trial” value in the data set on advanced ccRCC is given as “halted due to toxicity”.
